Source: ChEMBL document CHEMBL4334464, “From Phenylthiazoles to Phenylpyrazoles: Broadening the Antibacterial Spectrum toward Carbapenem-Resistant Bacteria” (J Med Chem, 2019)
Activity calls are given as the source filed them.

How the values were obtained:
Staphylococcus aureus [1] = test: Antibacterial activity against methicillin-resistant Staphylococcus aureus NRS384-USA300 clinical isolates after 18 to 20 hrs in aerobic condition by CLSI protocol based broth microdilution assay; assay type: functional
Escherichia coli [2] = test: Antimicrobial activity against Escherichia coli JW55031 harboring deltatolC mutant after 18 to 20 hrs in aerobic condition by CLSI protocol based broth microdilution assay; assay type: functional
Staphylococcus aureus [3] = test: Antibacterial activity against Methicillin-sensitive Staphylococcus aureus NRS107 clinical isolates after 18 to 20 hrs in aerobic condition by CLSI protocol based broth microdilution assay; assay type: functional
Staphylococcus aureus [4] = test: Antibacterial activity against linezolid-resistant/Methicillin-resistant Staphylococcus aureus NRS119 clinical isolates after 18 to 20 hrs in aerobic condition by CLSI protocol based broth microdilution assay; assay type: functional
Staphylococcus aureus [5] = test: Antibacterial activity against Methicillin-resistant Staphylococcus aureus NRS123-USA400 clinical isolates after 18 to 20 hrs in aerobic condition by CLSI protocol based broth microdilution assay; assay type: functional
Staphylococcus aureus [6] = test: Antibacterial activity against Methicillin-resistant Staphylococcus aureus NRS385-USA500 clinical isolates after 18 to 20 hrs in aerobic condition by CLSI protocol based broth microdilution assay; assay type: functional
Staphylococcus aureus [7] = test: Antibacterial activity against Methicillin-resistant Staphylococcus aureus USA700-NRS386 clinical isolates after 18 to 20 hrs in aerobic condition by CLSI protocol based broth microdilution assay; assay type: functional
Staphylococcus aureus [8] = test: Antibacterial activity against vancomycin-resistant Staphylococcus aureus isolate 10 after 18 to 20 hrs in aerobic condition by CLSI-based broth microdilution assay; assay type: functional
Staphylococcus aureus [9] = test: Antibacterial activity against vancomycin-resistant Staphylococcus aureus isolate 12 after 18 to 20 hrs in aerobic condition by CLSI-based broth microdilution assay; assay type: functional
Staphylococcus aureus [10] = test: Bactericidal activity against methicillin-resistant Staphylococcus aureus NRS123-USA400 clinical isolates at 5 times MIC incubated over 24 hrs followed by replating on tryptic soy agar plate and further incubated for 18 to 20 hrs by time kill assay; assay type: functional, organism-based
Streptococcus pneumoniae = test: Antibacterial activity against methicillin-resistant Streptococcus pneumoniae ATCC 700677 clinical isolates after 18 to 20 hrs by CLSI-based broth microdilution assay; assay type: functional
Acinetobacter baumannii [11] = test: Antibacterial activity against Acinetobacter baumannii NR 17785 clinical isolates after 18 to 20 hrs in aerobic condition by CLSI-based broth microdilution assay; assay type: functional
Escherichia coli [12] = test: Antibacterial activity against Escherichia coli BW25113 clinical isolates after 18 to 20 hrs in aerobic condition by CLSI-based broth microdilution assay; assay type: functional
Escherichia coli [13] = test: Antibacterial activity against Escherichia coli ATCC 25922 clinical isolates after 18 to 20 hrs in aerobic condition by CLSI-based broth microdilution assay; assay type: functional
Escherichia coli [14] = test: Antibacterial activity against Escherichia coli ATCC 35150 clinical isolates after 18 to 20 hrs in aerobic condition by CLSI-based broth microdilution assay; assay type: functional
[15] = Antibacterial activity against Enterobacter cloacae subsp. cloacae ATCC BAA-1143 clinical isolates after 18 to 20 hrs in aerobic condition by CLSI-based broth microdilution assay; assay type: functional
Salmonella enterica [16] = test: Antibacterial activity against Salmonella enterica NR-170 clinical isolates after 18 to 20 hrs in aerobic condition by CLSI-based broth microdilution assay; assay type: functional
Salmonella enteritidis [17] = test: Antibacterial activity against Salmonella enteritidis ATCC 14028 clinical isolates after 18 to 20 hrs in aerobic condition by CLSI-based broth microdilution assay; assay type: functional, Salmonella enterica subsp. enterica serovar Enteritidis; settings: Salmonella enterica
Salmonella typhimurium = test: Antibacterial activity against Salmonella typhimurium ATCC 700720 after 18 to 20 hrs in aerobic condition by CLSI-based broth microdilution assay; assay type: functional, Salmonella enterica subsp. enterica serovar Typhimurium; settings: Salmonella enterica
Shigella flexneri [18] = test: Antibacterial activity against Shigella flexneri ATCC 9199 clinical isolates after 18 to 20 hrs in aerobic condition by CLSI-based broth microdilution assay; assay type: functional
Pseudomonas aeruginosa [19] = test: Antibacterial activity against Pseudomonas aeruginosa ATCC 15442 clinical isolates after 18 to 20 hrs in aerobic condition by CLSI-based broth microdilution assay; assay type: functional
Acinetobacter baumannii [20] = test: Antibacterial activity against carbapenem-resistant Acinetobacter baumannii ATCC BAA 1605 clinical isolates after 18 to 20 hrs in aerobic condition by CLSI-based broth microdilution assay; assay type: functional
Escherichia coli [21] = test: Inhibition of 6His tagged Escherichia coli UPPP expressed in Escherichia coli C41(DE3) cells preincubated for 15 mins followed by FPP substrate addition and measured after 20 mins by malachite green reagent based assay
Staphylococcus aureus [22] = test: Ratio of MBC to MIC for Methicillin-sensitive Staphylococcus aureus ATCC 6538 clinical isolates; assay type: functional
Staphylococcus aureus [23] = test: Ratio of MBC to MIC for Methicillin-sensitive Staphylococcus aureus NRS107 clinical isolates; assay type: functional
Enterococcus faecalis = test: Ratio of MBC to MIC for vancomycin-resistant Enterococcus faecalis ATCC 51299 clinical isolates; assay type: functional
Listeria monocytogenes = test: Ratio of MBC to MIC for Listeria monocytogenes ATCC 19111 clinical isolates; assay type: functional
Acinetobacter baumannii [24] = test: Ratio of MBC to MIC for Acinetobacter baumannii ATCC 19606 clinical isolates; assay type: functional, ATCC 19606 = CIP 70.34 = JCM 6841
Acinetobacter baumannii [25] = test: Ratio of MBC to MIC for Acinetobacter baumannii ATCC BAA 1141 clinical isolates; assay type: functional
Acinetobacter baumannii [26] = test: Ratio of MBC to MIC for Acinetobacter baumannii ATCC BAA 1747 clinical isolates; assay type: functional
Acinetobacter baumannii [27] = test: Ratio of MBC to MIC for Acinetobacter baumannii NR 17785 clinical isolates; assay type: functional
Acinetobacter baumannii [28] = test: Ratio of MBC to MIC for Acinetobacter baumannii NR 17786 clinical isolates; assay type: functional
Escherichia coli [29] = test: Ratio of MBC to MIC for Escherichia coli BW25113 clinical isolates; assay type: functional
Escherichia coli [30] = test: Ratio of MBC to MIC for Escherichia coli ATCC 25922 clinical isolates; assay type: functional
Escherichia coli [31] = test: Ratio of MBC to MIC for Escherichia coli ATCC 35150 clinical isolates; assay type: functional
Escherichia coli [32] = test: Ratio of MBC to MIC for Escherichia coli ATCC 1411 clinical isolates; assay type: functional
Klebsiella pneumoniae = test: Ratio of MBC to MIC for Klebsiella pneumoniae BAA-1706 after 18 to 20 hrs in aerobic condition by CLSI-based broth microdilution assay; assay type: functional
Salmonella enterica [33] = test: Ratio of MBC to MIC for Salmonella enterica NR-170 clinical isolates; assay type: functional
Salmonella enteritidis [34] = test: Ratio of MBC to MIC for Salmonella enteritidis ATCC 14028 clinical isolates; assay type: functional, Salmonella enterica subsp. enterica serovar Enteritidis
Shigella flexneri [35] = test: Ratio of MBC to MIC for Shigella flexneri ATCC 9199 clinical isolates; assay type: functional
Pseudomonas aeruginosa [36] = test: Ratio of MBC to MIC for Pseudomonas aeruginosa ATCC 9027 clinical isolates; assay type: functional
Pseudomonas aeruginosa [37] = test: Ratio of MBC to MIC for Pseudomonas aeruginosa ATCC 25619 clinical isolates; assay type: functional
Pseudomonas aeruginosa [38] = test: Ratio of MBC to MIC for Pseudomonas aeruginosa ATCC 15442 clinical isolates; assay type: functional
Acinetobacter baumannii [39] = test: microbe, parasite or virus in culture; settings: ATCC BAA 1747
Description: Antibacterial activity against Acinetobacter baumannii ATCC BAA 1747 after 18 to 20 hrs in aerobic condition by CLSI-based broth microdilution assay

Pseudomonas aeruginosa [40] = test: microbe, parasite or virus in culture; settings: ATCC 25619
Description: Antibacterial activity against Pseudomonas aeruginosa ATCC 25619 clinical isolates after 18 to 20 hrs in aerobic condition by CLSI-based broth microdilution assay

C/C(=N\NC1=NCCN1)c1cnn(-c2ccc(C#CC3CCCC3)cc2)c1C
4 µg/mL: MIC (Staphylococcus aureus [1]) | MIC (Escherichia coli [2]) | MIC (Staphylococcus aureus [4]) | MIC (Staphylococcus aureus [5]) | MIC (Staphylococcus aureus [6]) | MIC (Staphylococcus aureus [7]) | MIC (Staphylococcus aureus [9]) | MIC (Streptococcus pneumoniae)
<3: Ratio (Enterococcus faecalis) | Ratio (Listeria monocytogenes)
active: Activity (Staphylococcus aureus [10])
<=2: Ratio (Staphylococcus aureus [22]) | Ratio (Staphylococcus aureus [23])
8 µg/mL: MIC (Staphylococcus aureus [8]) | MIC (Acinetobacter baumannii [11])
16 µg/mL: MIC (Escherichia coli [14]) | MIC (Acinetobacter baumannii [20]) | MIC (Acinetobacter baumannii [39])
64 µg/mL: MIC (Escherichia coli [12]) | MIC (Salmonella typhimurium) | MIC (Pseudomonas aeruginosa [19]) | MIC (Pseudomonas aeruginosa [40])
32 µg/mL: MIC (Escherichia coli [13]) | MIC [15] | MIC (Salmonella enterica [16]) | MIC (Salmonella enteritidis [17]) | MIC (Shigella flexneri [18])
inactive: inhibition (Escherichia coli [21])
2 µg/mL: MIC (Staphylococcus aureus [3])
>=1: Ratio (Acinetobacter baumannii [24]) | Ratio (Acinetobacter baumannii [25]) | Ratio (Acinetobacter baumannii [26]) | Ratio (Acinetobacter baumannii [27]) | Ratio (Acinetobacter baumannii [28]) | Ratio (Escherichia coli [29]) | Ratio (Escherichia coli [30]) | Ratio (Escherichia coli [31]) | Ratio (Escherichia coli [32]) | Ratio (Klebsiella pneumoniae) | Ratio (Salmonella enterica [33]) | Ratio (Salmonella enteritidis [34]) | Ratio (Shigella flexneri [35]) | Ratio (Pseudomonas aeruginosa [36]) | Ratio (Pseudomonas aeruginosa [37]) | Ratio (Pseudomonas aeruginosa [38])

C/C(=N\NC(=N)N)c1cnn(-c2ccc(C#Cc3ccccc3)cc2)c1C
8 µg/mL: MIC (Escherichia coli [12]) | MIC (Escherichia coli [14]) | MIC [15] | MIC (Salmonella enterica [16]) | MIC (Salmonella typhimurium) | MIC (Shigella flexneri [18])
<=2: Ratio (Staphylococcus aureus [22]) | Ratio (Staphylococcus aureus [23])
16 µg/mL: MIC (Salmonella enteritidis [17])
1 µg/mL: MIC (Staphylococcus aureus [1]) | MIC (Staphylococcus aureus [4]) | MIC (Staphylococcus aureus [6]) | MIC (Staphylococcus aureus [8])
4 µg/mL: MIC (Acinetobacter baumannii [11]) | MIC (Escherichia coli [13]) | MIC (Acinetobacter baumannii [20]) | MIC (Acinetobacter baumannii [39])
2 µg/mL: MIC (Escherichia coli [2]) | MIC (Staphylococcus aureus [3]) | MIC (Staphylococcus aureus [5]) | MIC (Staphylococcus aureus [7]) | MIC (Staphylococcus aureus [9]) | MIC (Streptococcus pneumoniae)
inactive: inhibition (Escherichia coli [21])
active: Activity (Staphylococcus aureus [10])
<3: Ratio (Enterococcus faecalis) | Ratio (Listeria monocytogenes)
>=1: Ratio (Acinetobacter baumannii [24]) | Ratio (Acinetobacter baumannii [25]) | Ratio (Acinetobacter baumannii [26]) | Ratio (Acinetobacter baumannii [27]) | Ratio (Acinetobacter baumannii [28]) | Ratio (Escherichia coli [29]) | Ratio (Escherichia coli [30]) | Ratio (Escherichia coli [31]) | Ratio (Escherichia coli [32]) | Ratio (Klebsiella pneumoniae) | Ratio (Salmonella enterica [33]) | Ratio (Salmonella enteritidis [34]) | Ratio (Shigella flexneri [35]) | Ratio (Pseudomonas aeruginosa [36]) | Ratio (Pseudomonas aeruginosa [37]) | Ratio (Pseudomonas aeruginosa [38])
32 µg/mL: MIC (Pseudomonas aeruginosa [19]) | MIC (Pseudomonas aeruginosa [40])

CCCC#Cc1ccc(-n2ncc(/C(C)=N/NC(=N)N)c2C)cc1
active: Activity (Staphylococcus aureus [10])
4 µg/mL: MIC (Staphylococcus aureus [1]) | MIC (Escherichia coli [2]) | MIC (Staphylococcus aureus [3]) | MIC (Staphylococcus aureus [7]) | MIC (Streptococcus pneumoniae)
<3: Ratio (Enterococcus faecalis) | Ratio (Listeria monocytogenes)
inactive: inhibition (Escherichia coli [21])
>=1: Ratio (Acinetobacter baumannii [24]) | Ratio (Acinetobacter baumannii [25]) | Ratio (Acinetobacter baumannii [26]) | Ratio (Acinetobacter baumannii [27]) | Ratio (Acinetobacter baumannii [28]) | Ratio (Escherichia coli [29]) | Ratio (Escherichia coli [30]) | Ratio (Escherichia coli [31]) | Ratio (Escherichia coli [32]) | Ratio (Klebsiella pneumoniae) | Ratio (Salmonella enterica [33]) | Ratio (Salmonella enteritidis [34]) | Ratio (Shigella flexneri [35]) | Ratio (Pseudomonas aeruginosa [36]) | Ratio (Pseudomonas aeruginosa [37]) | Ratio (Pseudomonas aeruginosa [38])
8 µg/mL: MIC (Acinetobacter baumannii [11]) | MIC (Escherichia coli [12]) | MIC (Escherichia coli [13]) | MIC (Escherichia coli [14]) | MIC (Acinetobacter baumannii [39])
2 µg/mL: MIC (Staphylococcus aureus [4]) | MIC (Staphylococcus aureus [5]) | MIC (Staphylococcus aureus [6]) | MIC (Staphylococcus aureus [8]) | MIC (Staphylococcus aureus [9])
<=2: Ratio (Staphylococcus aureus [22]) | Ratio (Staphylococcus aureus [23])
16 µg/mL: MIC [15] | MIC (Salmonella enterica [16]) | MIC (Salmonella enteritidis [17]) | MIC (Salmonella typhimurium) | MIC (Shigella flexneri [18]) | MIC (Pseudomonas aeruginosa [19]) | MIC (Acinetobacter baumannii [20]) | MIC (Pseudomonas aeruginosa [40])
